Test results: ChEMBL document CHEMBL3826966, “A chromatography-free isolation of rohitukine from leaves of Dysoxylum binectariferum: Evaluation for in vitro cytotoxicity, Cdk inhibition and physicochemical properties” (Bioorg Med Chem Lett, 2016)

Columns and labels:
[1] = Cell cycle arrest in human HL60 cells assessed as accumulation at G1 phase at 5 uM (reference value: 59 %); type: functional, cell-based; conditions: HL-60
[2] = target: Insulin receptor-related protein (Homo sapiens) (UniProt P14616); experiment: Inhibition of human IRR (944 to 1236 residues) assessed as remaining enzyme activity at 50 uM after 30 mins by 33P-ATP filter-binding assay
[3] = target: Serine/threonine-protein kinase PAK 4 (Homo sapiens) (UniProt O96013); experiment: Inhibition of human PAK4 (2 to 591 residues) assessed as remaining enzyme activity at 50 uM after 30 mins by 33P-ATP filter-binding assay
[4] = target: Serine/threonine-protein kinase pim-3 (Homo sapiens) (UniProt Q86V86); experiment: Inhibition of human PIM3 (2 to 326 residues) assessed as remaining enzyme activity at 50 uM after 30 mins by 33P-ATP filter-binding assay
[5] = target: Serine/threonine-protein kinase SIK3 (Homo sapiens) (UniProt Q9Y2K2); experiment: Inhibition of human SIK3 (2 to 1369 residues) assessed as remaining enzyme activity at 50 uM after 30 mins by 33P-ATP filter-binding assay
[6] = target: Mitogen-activated protein kinase 9 (Homo sapiens) (UniProt P45984); experiment: Inhibition of human JNK2 (1 to 424 residues) assessed as remaining enzyme activity at 50 uM after 30 mins by 33P-ATP filter-binding assay
[7] = Distribution coefficient, logD of the compound in water/PBS buffer at pH 7.4 at 25 degC after 20 mins by shake flask method; type: physicochemical
[8] = Stability in pH 6.8 buffer at 120 ug/ml after 8 hrs by RP-HPLC analysis; type: physicochemical; conditions: pH 6.8, 8 h
[9] = target: Protein kinase C alpha type (Homo sapiens) (UniProt P17252); experiment: Inhibition of human PKCalpha (1 to 672 residues) assessed as remaining enzyme activity at 50 uM after 30 mins by 33P-ATP filter-binding assay
[10] = target: Eukaryotic translation initiation factor 2-alpha kinase 3 (Homo sapiens) (UniProt Q9NZJ5); experiment: Inhibition of human EIF2AK3 (536 to 1116 residues) assessed as remaining enzyme activity at 50 uM after 30 mins by 33P-ATP filter-binding assay
Sequence of Eukaryotic translation initiation factor 2-alpha kinase 3 (Homo sapiens) (Q9NZJ5 whole entry, the tested form may be a part): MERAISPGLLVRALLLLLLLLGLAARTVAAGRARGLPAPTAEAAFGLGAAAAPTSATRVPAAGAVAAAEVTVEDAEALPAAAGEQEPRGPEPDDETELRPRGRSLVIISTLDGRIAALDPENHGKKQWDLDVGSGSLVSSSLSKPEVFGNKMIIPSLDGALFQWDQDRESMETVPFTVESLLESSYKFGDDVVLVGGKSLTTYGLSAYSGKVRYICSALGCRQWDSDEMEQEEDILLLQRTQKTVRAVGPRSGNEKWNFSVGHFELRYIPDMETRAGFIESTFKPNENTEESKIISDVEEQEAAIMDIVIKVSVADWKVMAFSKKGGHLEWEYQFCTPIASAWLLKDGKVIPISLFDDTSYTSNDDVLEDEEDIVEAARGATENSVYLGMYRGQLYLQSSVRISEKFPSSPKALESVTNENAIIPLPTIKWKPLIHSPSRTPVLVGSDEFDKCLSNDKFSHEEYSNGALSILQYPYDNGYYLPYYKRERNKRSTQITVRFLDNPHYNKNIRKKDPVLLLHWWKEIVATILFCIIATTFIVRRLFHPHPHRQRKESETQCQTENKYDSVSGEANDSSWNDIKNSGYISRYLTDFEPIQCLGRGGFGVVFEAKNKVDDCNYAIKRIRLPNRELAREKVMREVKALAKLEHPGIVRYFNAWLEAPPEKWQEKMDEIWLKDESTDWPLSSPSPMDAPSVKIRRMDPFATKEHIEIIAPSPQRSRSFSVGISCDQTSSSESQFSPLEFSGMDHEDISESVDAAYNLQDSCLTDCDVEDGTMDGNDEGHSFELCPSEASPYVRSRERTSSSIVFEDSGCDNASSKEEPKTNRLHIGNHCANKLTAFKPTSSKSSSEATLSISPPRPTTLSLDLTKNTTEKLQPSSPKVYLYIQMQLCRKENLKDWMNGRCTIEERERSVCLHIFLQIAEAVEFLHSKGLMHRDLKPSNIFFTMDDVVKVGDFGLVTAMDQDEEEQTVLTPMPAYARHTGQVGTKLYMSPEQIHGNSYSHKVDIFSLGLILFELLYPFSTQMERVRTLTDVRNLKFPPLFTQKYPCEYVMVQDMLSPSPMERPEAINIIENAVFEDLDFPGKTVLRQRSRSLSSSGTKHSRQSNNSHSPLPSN

[11] = target: RAC-beta serine/threonine-protein kinase (Homo sapiens) (UniProt P31751); experiment: Inhibition of human PKBbeta assessed as remaining enzyme activity at 50 uM after 30 mins by 33P-ATP filter-binding assay
Sequence of RAC-beta serine/threonine-protein kinase (Homo sapiens) (P31751 whole entry, the tested form may be a part): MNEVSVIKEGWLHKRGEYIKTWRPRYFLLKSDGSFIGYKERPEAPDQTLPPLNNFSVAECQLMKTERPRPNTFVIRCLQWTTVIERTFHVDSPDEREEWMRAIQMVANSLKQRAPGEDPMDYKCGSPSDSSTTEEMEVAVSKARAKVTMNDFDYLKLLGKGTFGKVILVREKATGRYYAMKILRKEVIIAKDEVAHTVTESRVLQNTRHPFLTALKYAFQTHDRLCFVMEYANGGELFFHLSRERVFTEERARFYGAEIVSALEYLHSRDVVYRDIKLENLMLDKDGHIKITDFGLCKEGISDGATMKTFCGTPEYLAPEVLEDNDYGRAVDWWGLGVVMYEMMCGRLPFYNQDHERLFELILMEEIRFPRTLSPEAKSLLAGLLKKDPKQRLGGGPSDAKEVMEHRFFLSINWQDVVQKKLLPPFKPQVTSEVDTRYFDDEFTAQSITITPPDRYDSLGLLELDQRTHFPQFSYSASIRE

[12] = target: Mitogen-activated protein kinase kinase kinase 1 (Homo sapiens) (UniProt Q13233); experiment: Inhibition of human MEKK1 (877 to1563 residues) assessed as remaining enzyme activity at 50 uM after 30 mins by 33P-ATP filter-binding assay
[13] = target: MAP kinase-interacting serine/threonine-protein kinase 2 (Homo sapiens) (UniProt Q9HBH9); experiment: Inhibition of human MNK2 assessed as remaining enzyme activity at 50 uM after 30 mins by 33P-ATP filter-binding assay
Sequence of MAP kinase-interacting serine/threonine-protein kinase 2 (Homo sapiens) (Q9HBH9 whole entry, looked up, the tested form may be a part): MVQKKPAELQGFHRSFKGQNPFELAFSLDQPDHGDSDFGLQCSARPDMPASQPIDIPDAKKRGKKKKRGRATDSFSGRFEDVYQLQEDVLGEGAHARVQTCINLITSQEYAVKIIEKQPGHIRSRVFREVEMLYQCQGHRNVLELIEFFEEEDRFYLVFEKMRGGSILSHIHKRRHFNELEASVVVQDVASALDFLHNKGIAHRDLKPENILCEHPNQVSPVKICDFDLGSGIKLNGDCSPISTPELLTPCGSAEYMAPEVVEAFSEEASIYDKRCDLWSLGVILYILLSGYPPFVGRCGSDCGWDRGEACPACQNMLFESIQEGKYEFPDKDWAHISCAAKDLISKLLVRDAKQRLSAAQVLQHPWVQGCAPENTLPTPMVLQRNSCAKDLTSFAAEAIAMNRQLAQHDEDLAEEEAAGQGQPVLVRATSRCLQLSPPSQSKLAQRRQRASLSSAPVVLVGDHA

[14] = target: Dual specificity mitogen-activated protein kinase kinase 1 (Homo sapiens) (UniProt Q02750); experiment: Inhibition of human MKK1 (2 to 393 residues) assessed as remaining enzyme activity at 50 uM after 30 mins by 33P-ATP filter-binding assay
Sequence of Dual specificity mitogen-activated protein kinase kinase 1 (Homo sapiens) (Q02750 whole entry, the tested form may be a part): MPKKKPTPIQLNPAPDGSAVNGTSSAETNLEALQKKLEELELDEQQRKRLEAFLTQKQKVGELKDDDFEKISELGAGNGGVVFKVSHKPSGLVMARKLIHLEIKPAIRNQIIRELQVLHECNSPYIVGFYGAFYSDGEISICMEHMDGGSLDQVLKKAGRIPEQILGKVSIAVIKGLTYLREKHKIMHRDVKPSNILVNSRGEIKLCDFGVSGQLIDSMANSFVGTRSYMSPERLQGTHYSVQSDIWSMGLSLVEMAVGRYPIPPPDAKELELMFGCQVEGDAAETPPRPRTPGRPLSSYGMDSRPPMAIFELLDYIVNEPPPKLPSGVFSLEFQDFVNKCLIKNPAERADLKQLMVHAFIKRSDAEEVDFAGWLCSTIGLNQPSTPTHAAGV

[15] = Cytotoxicity against HEK293 cells assessed as cell growth inhibition after 48 hrs by MTT assay; type: cell-based; conditions: human
[16] = target: AMP-activated protein kinase, AMPK (Homo sapiens) (UniProt P54646+O43741+P54619+Q9UGJ0+Q9Y478+Q13131+Q9UGI9); experiment: Inhibition of human AMPK assessed as remaining enzyme activity at 50 uM after 30 mins by 33P-ATP filter-binding assay; type: protein-complex assay
[17] = target: Serine/threonine-protein kinase 24 (Homo sapiens) (UniProt Q9Y6E0); experiment: Inhibition of human MST3 (2 to 431 residues) assessed as remaining enzyme activity at 50 uM after 30 mins by 33P-ATP filter-binding assay
[18] = target: Calcium/calmodulin-dependent protein kinase type 1 (Homo sapiens) (UniProt Q14012); experiment: Inhibition of human CAMK1 (1 to 541 residues) assessed as remaining enzyme activity at 50 uM after 30 mins by 33P-ATP filter-binding assay
Sequence of Calcium/calmodulin-dependent protein kinase type 1 (Homo sapiens) (Q14012 whole entry, looked up, the tested form may be a part): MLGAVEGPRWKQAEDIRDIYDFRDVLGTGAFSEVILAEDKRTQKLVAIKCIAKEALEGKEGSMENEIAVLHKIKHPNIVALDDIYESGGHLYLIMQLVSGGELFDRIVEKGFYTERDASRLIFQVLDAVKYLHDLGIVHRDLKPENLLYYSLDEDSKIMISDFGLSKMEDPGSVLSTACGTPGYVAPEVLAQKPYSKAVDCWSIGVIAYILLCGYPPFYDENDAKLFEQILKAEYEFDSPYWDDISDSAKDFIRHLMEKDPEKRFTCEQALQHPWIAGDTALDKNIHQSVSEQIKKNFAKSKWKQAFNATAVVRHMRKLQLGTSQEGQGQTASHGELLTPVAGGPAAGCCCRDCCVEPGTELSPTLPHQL

MDA-MB-468 = experiment: Cytotoxicity against human MDA-MB-468 cells assessed as cell growth inhibition after 48 hrs by MTT assay; type: functional; conditions: MDA-MB-468, 48 h
[19] = target: CDK2/Cyclin A2 (Homo sapiens) (UniProt P24941+P20248); experiment: Inhibition of human Cdk2/cyclin A assessed as remaining enzyme activity at 50 uM after 30 mins by 33P-ATP filter-binding assay; type: protein-complex assay
[20] = target: MAP kinase-interacting serine/threonine-protein kinase 1 (Homo sapiens) (UniProt Q9BUB5); experiment: Inhibition of human MNK1 (2 to 424 residues) assessed as remaining enzyme activity at 50 uM after 30 mins by 33P-ATP filter-binding assay
[21] = target: MAP kinase-activated protein kinase 5 (Homo sapiens) (UniProt Q8IW41); experiment: Inhibition of human PRAK (1 to 471 residues) assessed as remaining enzyme activity at 50 uM after 30 mins by 33P-ATP filter-binding assay
Sequence of MAP kinase-activated protein kinase 5 (Homo sapiens) (Q8IW41 whole entry, the tested form may be a part): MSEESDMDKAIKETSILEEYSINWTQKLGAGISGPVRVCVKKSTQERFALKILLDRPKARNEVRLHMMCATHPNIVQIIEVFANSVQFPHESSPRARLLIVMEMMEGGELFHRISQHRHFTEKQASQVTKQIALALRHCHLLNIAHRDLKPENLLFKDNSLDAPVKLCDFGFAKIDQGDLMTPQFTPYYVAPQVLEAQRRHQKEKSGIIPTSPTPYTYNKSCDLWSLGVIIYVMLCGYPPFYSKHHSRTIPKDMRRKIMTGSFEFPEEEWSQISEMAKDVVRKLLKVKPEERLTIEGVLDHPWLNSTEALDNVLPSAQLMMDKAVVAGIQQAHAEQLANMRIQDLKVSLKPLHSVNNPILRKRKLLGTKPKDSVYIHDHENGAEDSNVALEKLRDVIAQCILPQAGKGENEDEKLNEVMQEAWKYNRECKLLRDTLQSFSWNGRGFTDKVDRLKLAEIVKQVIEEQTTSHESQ

[22] = target: Interleukin-1 receptor-associated kinase 1 (Homo sapiens) (UniProt P51617); experiment: Inhibition of human IRAK1 (1 to 712 residues) assessed as remaining enzyme activity at 50 uM after 30 mins by 33P-ATP filter-binding assay
Sequence of Interleukin-1 receptor-associated kinase 1 (Homo sapiens) (P51617 whole entry, looked up, the tested form may be a part): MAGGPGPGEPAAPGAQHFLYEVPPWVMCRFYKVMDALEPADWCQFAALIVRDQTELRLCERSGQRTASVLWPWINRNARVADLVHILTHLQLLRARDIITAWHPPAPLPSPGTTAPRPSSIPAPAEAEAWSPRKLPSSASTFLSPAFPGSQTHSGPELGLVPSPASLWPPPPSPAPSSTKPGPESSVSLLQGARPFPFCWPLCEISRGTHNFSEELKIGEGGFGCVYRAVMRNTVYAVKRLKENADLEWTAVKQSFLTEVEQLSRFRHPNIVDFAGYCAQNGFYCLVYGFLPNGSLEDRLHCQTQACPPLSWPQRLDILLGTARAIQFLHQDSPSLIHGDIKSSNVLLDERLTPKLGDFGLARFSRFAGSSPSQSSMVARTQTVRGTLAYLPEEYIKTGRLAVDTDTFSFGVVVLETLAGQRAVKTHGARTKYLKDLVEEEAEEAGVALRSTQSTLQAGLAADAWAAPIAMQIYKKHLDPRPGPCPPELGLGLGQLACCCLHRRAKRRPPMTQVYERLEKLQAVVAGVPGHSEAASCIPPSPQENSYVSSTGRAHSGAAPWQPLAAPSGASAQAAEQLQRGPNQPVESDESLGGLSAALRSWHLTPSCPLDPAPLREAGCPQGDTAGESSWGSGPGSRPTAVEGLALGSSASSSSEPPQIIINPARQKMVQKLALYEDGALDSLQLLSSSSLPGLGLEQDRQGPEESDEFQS

[23] = Cell cycle arrest in human HL60 cells assessed as accumulation at G2 phase at 10 uM (reference value: 5 %); type: functional, cell-based; conditions: HL-60
[24] = target: Ribosomal protein S6 kinase alpha-5 (Homo sapiens) (UniProt O75582); experiment: Inhibition of human MSK1 (2 to 802 residues) assessed as remaining enzyme activity at 50 uM after 30 mins by 33P-ATP filter-binding assay
[25] = target: NUAK family SNF1-like kinase 1 (Homo sapiens) (UniProt O60285); experiment: Inhibition of human NUAK1 (2 to 660 residues) assessed as remaining enzyme activity at 50 uM after 30 mins by 33P-ATP filter-binding assay
Sequence of NUAK family SNF1-like kinase 1 (Homo sapiens) (O60285 whole entry, the tested form may be a part): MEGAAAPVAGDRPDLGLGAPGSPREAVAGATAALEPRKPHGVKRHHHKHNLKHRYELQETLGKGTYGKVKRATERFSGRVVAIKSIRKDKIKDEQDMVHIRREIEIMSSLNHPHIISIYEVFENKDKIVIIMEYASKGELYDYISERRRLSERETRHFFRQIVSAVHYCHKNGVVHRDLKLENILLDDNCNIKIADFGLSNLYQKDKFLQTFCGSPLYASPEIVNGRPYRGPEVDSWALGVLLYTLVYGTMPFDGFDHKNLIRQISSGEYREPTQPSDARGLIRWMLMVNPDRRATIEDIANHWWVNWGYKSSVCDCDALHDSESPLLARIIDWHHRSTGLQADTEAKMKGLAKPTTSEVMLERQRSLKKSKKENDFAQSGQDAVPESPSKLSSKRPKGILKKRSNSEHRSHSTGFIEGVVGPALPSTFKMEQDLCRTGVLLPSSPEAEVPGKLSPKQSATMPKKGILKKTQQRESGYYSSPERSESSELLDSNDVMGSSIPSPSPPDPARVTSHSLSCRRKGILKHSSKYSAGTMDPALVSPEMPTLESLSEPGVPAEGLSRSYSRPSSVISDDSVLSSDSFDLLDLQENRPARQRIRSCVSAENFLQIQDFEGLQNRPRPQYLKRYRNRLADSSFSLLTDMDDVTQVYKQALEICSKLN

[26] = target: Serine/threonine-protein kinase Chk1 (Homo sapiens) (UniProt O14757); experiment: Inhibition of human CHK1 (1 to 476 residues) assessed as remaining enzyme activity at 50 uM after 30 mins by 33P-ATP filter-binding assay
[27] = Cell cycle arrest in human HL60 cells assessed as accumulation at S phase at 10 uM (reference value: 36 %); type: functional, cell-based; conditions: HL-60
[28] = target: 3-phosphoinositide-dependent protein kinase 1 (Homo sapiens) (UniProt O15530); experiment: Inhibition of human PDK1 (52 to 556 residues) assessed as remaining enzyme activity at 50 uM after 30 mins by 33P-ATP filter-binding assay
[29] = Cytotoxicity against human SNB75 cells assessed as cell growth inhibition after 48 hrs by MTT assay; type: functional; conditions: SNB-75, 48 h
HL-60 = experiment: Induction of apoptosis in human HL60 cells assessed as apoptotic cells at 5 uM (reference value: 1 %); type: functional

Activity [2]: 53% | Activity [3]: 83% | Activity [4]: 12% | Activity [5]: 28% | Activity [6]: 107% | logD at 20 min [7]: -0.55 | Stability [8]: Stable | Activity [9]: 78% | Activity [10]: 82% | Activity [11]: 80% | Activity [12]: 83% | Activity [13]: 49% | Activity [14]: 27% | Activity [16]: 16% | Activity [17]: 85% | Activity [18]: 76% | Activity [19]: 16% | Activity [20]: 88% | Activity [21]: 72% | Activity [22]: 55% | Activity [24]: 30% | Activity [25]: 52% | Activity [26]: 52% | Activity [28]: 90%
SMILES: Cc1cc(=O)c2c(O)cc(O)c([C@H]3CCN(C)C[C@H]3O)c2o1 [ROHITUKINE]
Activity [1]: 56% | GI50 at 48 h [15]: > 50 µM | GI50 (MDA-MB-468): 17 µM | Activity [23]: 4% | Activity [27]: 48% | GI50 [29]: 22 µM | Activity (HL-60): 4%
